Laboratory results published in patent publication US6610289B2, “Mutated herpes simplex virus type 1 thymidine kinases and uses thereof” (The Board of Trustees of the University of Arkansas, priority 1998, dated 2003).
Like-named read-outs stand apart in the source and are kept apart here.

Key:
HSV-1 TK [1] = test: Substrate screen: phosphorylation of thymidine, TMP, GCV, ACV, dC, AZT by partially purified HSV-1 TKs; type: biochemical, herpes simplex virus type 1
Method: The activity of the purified HSV-1 TK was determined using the following standard reaction mixture for thymidine as a substrate (12): 3 μg of protein, 4 μM [^3H-methyl]thymidine (0.1 mCi/mmol), 20 mM potassium phosphate, pH 7.6, 1 mM DTT, 5 mM ATP, 5 mM MgCl2, 25 mM NaF, 40 mM KCl, and 0.5 mg/ml BSA in a total volume of 25 μl for 10 minutes at 37° C. To identify phosphorylated products, 20 μl of the reaction mixture was loaded onto a DE-81 filter and dried, washed once in 1 mM ammonium formate, twice more in 95% ethanol, and counted for radioactivity (12). Radioactivity was determined using an LKB 1214 Rackbeta liquid scintillation counter and corrected for background using controls with enzyme incubated in the absence of ATP. For TMPK activity, 20 μM [^3H-methyl]TMP was substituted for thymidine in the above assay mixture, and [^3H]TDP product was determined by separation from [^3H]TMP on thin layer PEI-cellulose plates developed in 0.35M LiCl (21). Amount of product converted to TDP was quantitated by scintillation counting of the excised TMP and TDP spots. The filter binding assay was used to quantitate the phosphorylation of [^3H]dC (200) μM and [^3H]AZT (200 μM) with the four enzymes. To compare relative enzymatic activities for [^3H]GCV (50 μM) and [^3H]ACV (50 μM), reactions were loaded onto small DE-52 columns packed in Pasteur pipettes as previously described (22).
As an initial screen for activity, each expressed HSV-1 TK enzyme was assayed for phosphorylation of the following substrates: thymidine (4 μM), TMP (20 μM), ACV (50 μM), GCV (50 μM), deoxycytidine (dC, 200 μM), or 3′-azido-2′,3′dideoxythymidine (AZT, 200 μM). Enzymatic conditions for optimal wild-type HSV-1 TK activities were utilized, thus results presented in Table 1 for each substrate were normalized to 100% values for comparative purposes. As expected, the wild-type Gln-125 HSV-1 TK efficiently phosphorylated each of these substrates. For each mutant, there was a striking decrease in their ability to phosphorylate pyrimidine nucleosides, and minimal TMPK activity for the TMP substrate.

HSV-1 TK [2] = target: T1, HSV-1 TK (Human herpesvirus 1, UniProt P0DTH5, Q125D); type: biochemical, herpes simplex virus type 1; conditions: substrate GCV
T1 construct: made in house; host or cells: E. coli BL21SY211 (pET-9a derived pET-TK plasmids)
T1 sequence (P0DTH5 1-376 Q125D): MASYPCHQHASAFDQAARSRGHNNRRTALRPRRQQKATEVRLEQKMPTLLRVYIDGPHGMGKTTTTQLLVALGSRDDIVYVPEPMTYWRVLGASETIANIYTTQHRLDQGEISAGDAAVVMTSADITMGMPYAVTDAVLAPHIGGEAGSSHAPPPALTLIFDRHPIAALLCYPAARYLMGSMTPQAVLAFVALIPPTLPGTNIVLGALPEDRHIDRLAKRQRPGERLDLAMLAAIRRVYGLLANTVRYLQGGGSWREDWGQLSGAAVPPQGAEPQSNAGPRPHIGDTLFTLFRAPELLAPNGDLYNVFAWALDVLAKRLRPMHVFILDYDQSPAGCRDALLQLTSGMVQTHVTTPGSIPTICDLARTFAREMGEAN
Method: (§1) For determination of Km values of thymidine and GCV for the four enzymes, the filter binding assay was utilized. The basic reaction components were as above, and the following enzyme concentrations, substrate ranges and times were used under linear initial velocity conditions: for [^3H]thymidine: parent Gln-125TK: 0.1 μg TK, 0.1-4 μM, 10 min; Asn-125TK: 0.2 μg TK, 0.25-10 μM, 15 min; Asp-125TK: 4 μg TK, 0.1-2.5 μM, 30 min; Glu-125TK 0.5 μg TK, 0.5-2.5 μM, 15 min. For [^3H]GCV: parent Gln-125TK: 2 μg TK, 5-100 μM, 15 min; Asn-125TK: 0.6 μg TK, 0.5-15 μM, 15 min; Asp-125TK: Not determined; Glu-125TK 4 μg TK, 50-1000 μM, 25 min. Each reaction was done in triplicate. For calculation of kinetic constants, non-linear regression Michaelis-Menten analyses were done using PSI-PLOT version 5.0 (Poly Software International).
(§2) Unlike the substrate screening assays presented in Table 1, linear velocity conditions for each enzyme and substrate were established prior to Km determinations.

HSV-1 TK [3] = type: biochemical, herpes simplex virus type 1; conditions: substrate thymidine
Method: as §1, §2

HCT-116 cells = test: MTT cell viability, sensitivity to GCV killing, HCT-116 cell lines expressing HSV-1 TKs; type: cell-based, human; conditions: HCT-116, GCV 0-5 μM, 4 days, FIG. 3B
Method: Cells were plated in triplicate and exposed to 0, 0.05, 0.5 or 5 μM GCV for four days. Cell viabilities were determined using MTT dye. […] FIG. 3A: NIH3T3 cell lines, FIG. 3B: HCT-116 cell lines; parental cells (noTK, dark bands); Asp125TK (Asp-#, brick band); Glu-125TK (Glu-#, cross-hatch bands); Asn-125TK (Asn-#, gray bands); wild-type HSV-1 TK (WT-#, striped bands).
A Moloney murine leukemia virus derived plasmid for the expression of HSV-TK, termed pLENTK, has been previously constructed (24). A unique BspEI-MluI restriction fragment within the HSV-TK sequence of pLENTK contains the Gln-125 mutation site. This fragment was removed from wild-type plasmid and replaced with the analogous fragments encoding each mutant. […] Along with wild-type HSV-1 TK plasmid, each mutant-TK plasmid was transfected individually into the murine fibroblast cell line, NIH 3T3, and the human colon tumor cell line, HCT-116, using lipofectin reagent (GIBCO/BRL) (2 μg plasmid, 14 μl lipid per 1×10^6 cells). Cells were maintained in RPMI 1640 media and selected with G418 (200 μg/ml for 2 weeks) as previously described (24). At least eight individual G418 resistant cell clones were picked and grown up for further characterization. Each clone was screened initially for growth inhibition by 25 μM GCV. Those clones that were sensitive were further analyzed for HSV-TK protein expression by Western blot analysis with a polyclonal, rabbit anti-HSV-TK antibody (a gift from Dr. Margaret Black). For each clone, cell numbers were normalized to 1×10^6, and equal protein loading was confirmed for each sample by gel staining. Blotted HSV-1 TK protein bands were visualized on film using ECL chromophore reagents (Amersham). For analysis of GCV sensitivity of different clones, NIH3T3 and HCT-116 cell sets were seeded in 96 well plates in 0.1 ml media (15,000 cells/well). The next day, a dose range of GCV (0.005 to 5 mM, n=3) was added in 0.1 ml media. After 4 days, MTT ([…]) was added for 1.5 hours, followed by DMSO solubilization of the cells and absorbance reading at 540 nm (25).
cDNA for each mutant was incorporated into a Moloney murine leukemia virus plasmid (24). The plasmids for wild-type HSV-1 TK and each mutant were individually transfected into either NIH3T3 cells or the human colon tumor cell line, HCT-116. Following drug selection in G418, individual cell clones were evaluated for sensitivity to GCV and relative levels of HSV-1 TK expression. Using an HSV-1 TK antibody and extracts normalized by protein and cell number, the relative expression levels of HSV-1 TK in each cell clone were determined.

Asp-125
Product formation ACVMP (HSV-1 TK [1]; substrate ACV 50 μM): 14 % of wild-type Gln-125 | Product formation AZTMP (HSV-1 TK [1]; substrate AZT 200 μM): 8 % of wild-type Gln-125 | Product formation GCVMP (HSV-1 TK [1]; substrate GCV 50 μM): 0.7 % of wild-type Gln-125 | Product formation TDP (TMPK activity) (HSV-1 TK [1]; substrate TMP 20 μM): 4 % of wild-type Gln-125 | Product formation dCMP (HSV-1 TK [1]; substrate dC 200 μM): >0.1 % of wild-type Gln-125 | Product formation TMP (HSV-1 TK [1]; substrate thymidine 4 μM): 0.5 % of wild-type Gln-125 | Ganciclovir phosphorylation kinetics (in words) (HSV-1 TK [2]): poorly phosphorylate ganciclovir, but with non-linear kinetics | Ganciclovir phosphorylation kinetics (in words) (HSV-1 TK [2]; listed as Asp-125TK): no linear velocity conditions could be established | Change of kcat for thymidine relative to wild-type (in words) (HSV-1 TK [3]): doubled | Increase of Km for thymidine relative to wild-type enzyme (HSV-1 TK [3]): ~6000 fold | kcat thymidine (HSV-1 TK [3]): 0.11 s⁻¹ | Km (HSV-1 TK [3]; read-out: Km thymidine): 6 mM | Dose dependent cell killing by GCV (cell viability, MTT) (HCT-116 cells): little effect on cell viability
